Common to all, as to type: cell-based
In assay [1] the test system is CHO-K1. The experiment in a line: Activation of wild type BK calcium channel (unknown origin) expressed in CHO-K1 cells assessed as increase in channel open probability by whole cell patch-clamp technique relative to control. The conditions noted are these: Homo sapiens. (In general: The patch-clamp technique gives a direct electrical read-out from membranes.)
For assay [2], the system named is CHO-K1. The experiment in a line: Activation of wild type BK calcium channel STREX domain-deleted mutant (unknown origin) expressed in CHO-K1 cells assessed as increase in channel open probability at 10 uM at +20 mV holding potential by whole cell patch-clamp technique (reference value: 0.7 +/- 0.1%). The conditions noted are these: Homo sapiens.
Assay [3] relates to CHO-K1. The assay is described as follows: Extracellular activation of wild type BK calcium channel (unknown origin) expressed in CHO-K1 cells assessed as increase in whole cell currents at 10 uM by whole cell patch-clamp technique. The conditions noted are these: Homo sapiens.
The subject of assay [4] is CHO-K1. The assay is described as follows: Activation of wild type BK calcium channel (unknown origin) expressed in CHO-K1 cells assessed as increase in channel open probability at 10 uM at +20 mV holding potential by whole cell patch-clamp technique (reference value: 0.58 +/- 0.03%). To be noted: Homo sapiens.
Assay [5] concerns CHO-K1. The experiment in a line: Activation of wild type BK calcium channel (unknown origin) expressed in CHO-K1 cells assessed as increase in channel open probability at 5 uM at +20 mV holding potential by whole cell patch-clamp technique (reference value: 0.58 +/- 0.03%). To be noted: Homo sapiens.
Assay [6] has as its system CHO-K1. The experiment in a line: Activation of wild type BK calcium channel (unknown origin) expressed in CHO-K1 cells assessed as increase in channel open probability at 1 uM at +20 mV holding potential by whole cell patch-clamp technique (reference value: 0.58 +/- 0.03%). The conditions noted are these: Homo sapiens.
Assay [7] deals with CHO-K1. The experiment in a line: Activation of wild type BK calcium channel (unknown origin) expressed in CHO-K1 cells assessed as increase in channel open probability at 0.1 uM at +20 mV holding potential by whole cell patch-clamp technique (reference value: 0.58 +/- 0.03%). To be noted: Homo sapiens.
Assay [8] in a line: (§1) Activation of wild type BK calcium channel (unknown origin) expressed in CHO-K1 cells assessed as increase in channel open probability at +20 mV holding potential by whole cell patch-clamp technique.
In assay [9] the test system is CHO-K1. The assay is described as §1. The conditions noted are these: Homo sapiens.

Calls of active or inactive are those of the source. No cut-off for these calls is given here.

In the case of `CCCCCCCCC/C=C\CC/C=C/[C@@H](O)[C@H](CO[C@@H]1O[C@H](CO)[C@@H](O)[C@H](O)[C@H]1O)NC(=O)[C@H](O)CCCCCCCCCCCCCCCC`, in the assay on CHO-K1 [1], the fold change (FC) came to 1.15.
The same measure, in the same setting: as for `CCCCCCCCC/C=C/CC/C=C/[C@@H](O)[C@H](CO[C@@H]1O[C@H](CO)[C@@H](O)[C@H](O)[C@H]1O)NC(=O)[C@H](O)CCCCCCCCCCCCCCCC`, the figure is 2.03; as for `CCCCCCCCC/C=C/CC/C=C/[C@@H](O)[C@H](CO[C@@H]1O[C@H](CO)[C@@H](O)[C@H](O)[C@H]1O)NC(=O)[C@H](O)CCCCCCCCCCCCCCCCCC`, 3.12.
The same measure, in the same setting: the figure for `CCCCCCCCC/C=C\CC/C=C/[C@@H](O)[C@H](CO[C@@H]1O[C@H](CO)[C@@H](O)[C@H](O)[C@H]1O)NC(=O)[C@H](O)CCCCCCCCCCCCCCCCCC` is 1.89.
Broadly, the EC50 is the concentration that produces a half-maximal response. With `CCCCCCCCC/C=C\CC/C=C/[C@@H](O)[C@H](CO[C@@H]1O[C@H](CO)[C@@H](O)[C@H](O)[C@H]1O)NC(=O)[C@H](O)CCCCCCCCCCCCCCCCCCCC`, the fold change (FC) in the assay with CHO-K1 [1] turned out to be 5.34. Also, the Activity with CHO-K1 [2] is 0.9%; in the assay with CHO-K1 [4], 4.2%; in the assay with CHO-K1 [5], 3.3%; in the assay with CHO-K1 [6], 2.4%; in the assay with CHO-K1 [7] it was 0.65%; in the assay with CHO-K1 [9], “Dose-dependent effect”. In the assay with CHO-K1 [3], the result was Active. In addition, the EC50 in assay [8] worked out at 1000 nM.

(Values after ChEMBL document CHEMBL3120076, “Structure-activity relationship of Baifuzi-cerebrosides on BKCa channel activation” (Eur J Med Chem, 2014).)
